Six molecules from patent publication EP0155799A2, “Paulomycin analogues and their preparation” (THE UPJOHN COMPANY, priority 1984, dated 1985) can be followed below.

In data set [1] the test system is Staphylococcus aureus U.C. 6685. As to the kind of experiment: Antibacterial activity in vivo, experimentally infected mouse. The note with it: sc, dosed subcutaneously, infected experimentally with Staphylococcus aureus U.C. 6685, read-out: CD50 (the source's name).
The nature of data set [2]: Solubility (characterization). The format is physicochemical. Particulars: solvents as named in the value.
The test system of the next data set is Staphylococcus aureus. Description: MIC, standard microplate agar assay, PYG agar pH 6 (aerobic bacteria). The format is cell-based. The note with it: read-out: MINIMAL INHIBITORY CONCENTRATION
As to the method:
(§1) The antibacterial assay is a standard microplate agar assay using PYG agar, pH 6. PYG agar consists of the following ingredients:
(§2) The MIC is determined by standard methods. The inocula are overnight cultures of the test organisms, diluted so that the final population contains approximately 10^5 cells/ml. The agar plates are incubated at 28°C to 37°C for 24 hrs. The lowest antibiotic concentration which allows no growth=MIC or minimum inhibitory concentration.
(§3) The MIC is determined by standard methods. The inocula are overnight cultures of the test organisms, diluted so that the final population contains approximately 10^5 cells/ml. The agar plates are incubated at 28°C to 37°C for 24 hrs. The lowest antibiotic concentration which allows no growth-HIC or minimum inhibitory concentration.

The next data set has as its system Citrobacter freundii. The data set is described as above. The format is cell-based. Particulars: UC3507, 24 h; Citrobacter freundii UC 3507, pH 6; read-out: MINIMAL INHIBITORY CONCENTRATION
As to the method: as §1, §2, §3

A further data set relates to Pseudomonas aeruginosa. The data set is described as above. The format is cell-based. Particulars: read-out: MINIMAL INHIBITORY CONCENTRATION
The protocol:
as §1, §2, §3

Another data set relates to Enterobacter cloacae. Described as above. The format is cell-based. Particulars: read-out: MINIMAL INHIBITORY CONCENTRATION
As to the method: as §1, §2, §3

In another data set the test system is Streptococcus faecalis. The description is as above. Particulars: Enterococcus faecalis, UC694, 24 h; Streptococcus faecalis UC 694, pH 6; read-out: MINIMAL INHIBITORY CONCENTRATION
Type of data set: cell-based. The protocol:
as §1, §2, §3

The next data set relates to Klebsiella pneumoniae. Described as above. Type of data set: cell-based. The note with it: UC58, 24 h; Klebsiella pneumoniae UC 58, pH 6; read-out: MINIMAL INHIBITORY CONCENTRATION
The protocol: as §1, §2, §3

In another data set the test system is Serratia marcescens. The description is as above. Type of data set: cell-based. The note with it: for MIC: Serratia marcescens, UC6888, 24 h, pH 6, Serratia marcescens UC 6888, pH 6, read-out: MINIMAL INHIBITORY CONCENTRATION
The protocol: as §1, §2, §3

The subject of the next data set is Escherichia coli. The description is as above. The format is cell-based. Particulars: read-out: MINIMAL INHIBITORY CONCENTRATION
As to the method: as §1, §2, §3

Another data set has as its system Proteus vulgaris. Described as above. Type of data set: cell-based. Particulars: UC30264, 24 h; Proteus vulgaris UC 30264, pH 6; read-out: MINIMAL INHIBITORY CONCENTRATION
As to the method: as §1, §2, §3

Another data set relates to Klebsiella oxytoca. The description is as above. Type of data set: cell-based. Particulars: read-out: MINIMAL INHIBITORY CONCENTRATION
As to the method: as §1, §2, §3

Setting [3] is: UC3665, 24 h, Staphylococcus aureus UC 3665, pH 6.
Where [4] appears, read: UC6675, 24 h, Staphylococcus aureus UC 6675, pH 6.
[5] abbreviates: UC6685, 24 h, Staphylococcus aureus UC 6685, pH 6.
Where [6] appears, read: UC6432, 24 h, Pseudomonas aeruginosa UC 6432, pH 6.
The mark [7] stands for this setting: UC9191, 24 h, Pseudomonas aeruginosa UC 9191, pH 6.
The mark [8] stands for this setting: UC9381, 24 h, Enterobacter cloacae UC 9381, pH 6.
Where [9] appears, read: UC9382, 24 h, Enterobacter cloacae UC 9382, pH 6.
[10] abbreviates: UC311, 24 h, Escherichia coli UC 311, pH 6.
[11] abbreviates: UC9379, 24 h, Escherichia coli UC 9379, pH 6.
Setting [12] is: UC9380, 24 h, Escherichia coli UC 9380, pH 6.
Setting [13] is: UC9383, 24 h, Klebsiella oxytoca UC 9383, pH 6.
[14] abbreviates: UC9384, 24 h, Klebsiella oxytoca UC 9384, pH 6.

Values after ≈ are worked out from the molar mass of the structure shown. Where two headings read alike, the source gives them in different places.

Take `CCC(C)C(=O)OC(C)C1(O)C(C)OC(OC2C(O)C(C3(O)CC(=O)C(O)=C(C(N)=O)C3=O)OC(COC(C)=O)C2OC(=O)C(NC(=S)SCCO)C(C)SC(CC(=O)O)C(=O)O)CC1OC` (stereo not drawn) [R2=CHCOOH | CH2COOH R3=CH2CH2OH]: in data set [1], the ED50 is 44 mg/kg.
As for `CC=C(N=C=S)C(=O)OC1C(COC(C)=O)OC(C2(O)CC(=O)C(O)=C(C(N)=O)C2=O)C(O)C1OC1CC(OC)C(O)(C(C)OC(=O)CC(C)C)C(C)O1` (stereo not drawn) [Paulomycin A2], the Solubility entry in data set [2] is given as “Soluble in lower alcohols, ketones, ethyl acetate, chloroform, methylene chloride; less soluble in ether; insoluble in saturated hdyrocarbon solvents”. Also, the MIC is 0.12 µg/mL (≈ 0.153 µM) in the data set with Staphylococcus aureus (setting [3]); 0.12 µg/mL (≈ 0.153 µM) in the data set with Staphylococcus aureus (setting [4]); 0.12 µg/mL (≈ 0.153 µM) with Staphylococcus aureus (setting [5]); greater than 64 µg/mL with Citrobacter freundii; greater than 64 µg/mL in the data set on Pseudomonas aeruginosa (setting [6]); greater than 64 µg/mL in the data set on Pseudomonas aeruginosa (setting [7]). For the same molecule, the MIC in the data set on Enterobacter cloacae (setting [8]) was greater than 64 µg/mL; with Enterobacter cloacae (setting [9]), greater than 64 µg/mL; with Streptococcus faecalis, 0.25 µg/mL (≈ 0.318 µM); with Klebsiella pneumoniae, greater than 64 µg/mL; in the data set with Serratia marcescens, greater than 64 µg/mL; in the data set on Escherichia coli (setting [10]), greater than 64 µg/mL. For the same molecule, the MIC in the data set with Escherichia coli (setting [11]) is greater than 64 µg/mL; with Escherichia coli (setting [12]), greater than 64 µg/mL; in the data set with Proteus vulgaris, 32 µg/mL (≈ 40.7 µM); in the data set with Klebsiella oxytoca (setting [13]), greater than 64 µg/mL; with Klebsiella oxytoca (setting [14]), greater than 64 µg/mL.
On to `CC=C(N=C=S)C(=O)OC1C(COC(C)=O)OC(C2(O)CC(=O)C(O)=C(C(N)=O)C2=O)C(O)C1OC1CC(OC)C(O)(C(C)OC(=O)C(C)CC)C(C)O1` (stereo not drawn) [Paulomycin A], for which the MIC was 0.12 µg/mL (≈ 0.153 µM) with Staphylococcus aureus (setting [3]); 0.12 µg/mL (≈ 0.153 µM) with Staphylococcus aureus (setting [4]); 0.12 µg/mL (≈ 0.153 µM) with Staphylococcus aureus (setting [5]); greater than 64 µg/mL in the data set with Citrobacter freundii; greater than 64 µg/mL in the data set with Pseudomonas aeruginosa (setting [6]); greater than 64 µg/mL in the data set with Pseudomonas aeruginosa (setting [7]). The MIC is greater than 64 µg/mL in the data set on Enterobacter cloacae (setting [8]); greater than 64 µg/mL in the data set on Enterobacter cloacae (setting [9]); 0.25 µg/mL (≈ 0.318 µM) in the data set with Streptococcus faecalis; greater than 64 µg/mL in the data set on Klebsiella pneumoniae; greater than 64 µg/mL in the data set with Serratia marcescens; greater than 64 µg/mL in the data set with Escherichia coli (setting [10]). Besides, the MIC in the data set on Escherichia coli (setting [11]) is greater than 64 µg/mL; in the data set on Escherichia coli (setting [12]), greater than 64 µg/mL; in the data set with Proteus vulgaris it was 16 µg/mL (≈ 20.3 µM); with Klebsiella oxytoca (setting [13]) it was greater than 64 µg/mL; with Klebsiella oxytoca (setting [14]), greater than 64 µg/mL. The “MINIMAL INHIBITORY CONCENTRATION” value in the data set on Serratia marcescens (Serratia marcescens UC 6888, pH 6) came out at 64 µg/mL.
`CCC(C)C(=O)OC(C)C1(O)C(C)OC(OC2C(O)C(C3(O)CC(=O)C(O)=C(C(N)=O)C3=O)OC(COC(C)=O)C2OC(=O)C(NC(=S)SC[C@H](NC(C)=O)C(=O)O)C(C)SCCO)CC1OC` (stereo partly drawn) [R2=CH2CH2OH R3=CH2CHCOOH | NHCOCH3]: in data set [1], the ED50 was 15.3 mg/kg.
As to `CC=C(N=C=S)C(=O)OC1C(COC(C)=O)OC(C2(O)CC(=O)C(O)=C(C(N)=O)C2=O)C(O)C1OC1CC(OC)C(O)(C(C)=O)C(C)O1` (stereo not drawn) [Paulomycin E], the Solubility result in data set [2] is recorded as “Soluble in lower alcohols, ketones, ethyl acetate, chloroform, methylene chloride; less soluble in ether; insoluble in saturated hdyrocarbon solvents”. Moreover, the MIC in the data set with Staphylococcus aureus (setting [3]) is 1 µg/mL (≈ 1.43 µM); with Staphylococcus aureus (setting [4]), 1 µg/mL (≈ 1.43 µM); in the data set with Staphylococcus aureus (setting [5]), 1 µg/mL (≈ 1.43 µM); in the data set on Citrobacter freundii it was greater than 64 µg/mL; with Pseudomonas aeruginosa (setting [6]) it was greater than 64 µg/mL; in the data set on Pseudomonas aeruginosa (setting [7]), greater than 64 µg/mL. Also, the MIC in the data set on Enterobacter cloacae (setting [8]) was greater than 64 µg/mL; in the data set with Enterobacter cloacae (setting [9]), greater than 64 µg/mL; with Streptococcus faecalis, 1 µg/mL (≈ 1.43 µM); with Klebsiella pneumoniae, greater than 64 µg/mL; with Serratia marcescens, greater than 64 µg/mL; with Escherichia coli (setting [10]), greater than 64 µg/mL. Further, the MIC in the data set on Escherichia coli (setting [11]), with Escherichia coli (setting [12]), in the data set with Proteus vulgaris, with Klebsiella oxytoca (setting [13]) and in the data set on Klebsiella oxytoca (setting [14]) was greater than 64 µg/mL throughout.
As to `CCC(C)C(=O)OC(C)C1(O)C(C)OC(OC2C(O)C(C3(O)CC(=O)C(O)=C(C(N)=O)C3=O)OC(COC(C)=O)C2OC(=O)C(NC(=S)SCCO)C(C)SC[C@H](NC(C)=O)C(=O)O)CC1OC` (stereo partly drawn) [R2=CH2CHCOOH | NHCOCH3 R3=CH2CH2OH], in [1], the ED50 was found to be 8 mg/kg.
